Measured values published in EP1389461A1, “Pyrimidones with antiviral properties” (Axxima Pharmaceuticals Aktiengesellschaft, priority 2002, dated 2004).

Test system: HCMV
Experiment: HCMV replication in vitro
Assay type: cell-based, human cytomegalovirus (HCMV)
Conditions: Human betaherpesvirus 5

Nc1nc(O)c2ncn(COC(CO)CO)c2n1 [ganciclovir]
IC50: 3 to 4 µM
